Reference: patent publication US7396837B2, “Antitumoral analogs of lamellarins” (Pharma Mar, S.A.U., priority 2002, dated 2008)
Read-outs that look alike come from different tables or passages of the source.

Columns and labels:
Type in all cases: cell-based
PANC-1 = assay: SRB colorimetric cell growth inhibition assay, PANC-1; conditions: for CC50: cell killing (cytotoxic effect), read-out: LC50 PANC-1; for GI50: GI=growth inhibition, read-out: GI50 PANC-1
Method in brief: (§1)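 Human tumour cells continuously exposed to compound in 96-well culture; growth and viability quantified colorimetrically by sulforhodamine B staining. Mean ± SD from triplicate wells; GI (growth inhibition), TGI (total growth inhibition, cytostatic) and LC (cell killing, cytotoxic) parameters derived.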

LoVo-Dox = assay: SRB colorimetric cell growth inhibition assay, LoVo-Dox (MDR); conditions: Homo sapiens, LOVO-DOX; for GI50: GI=growth inhibition, read-out: GI50 LOVO-DOX; for CC50: cell killing (cytotoxic effect), read-out: LC50 LOVO-DOX; for IC (TGI): total growth inhibition (cytostatic effect), read-out: TGI LOVO-DOX
Method in brief: as §1

A-549 = assay: SRB colorimetric cell growth inhibition assay, A-549; conditions: for CC50: cell killing (cytotoxic effect), read-out: LC50 A-549; for GI50: GI=growth inhibition, read-out: GI50 A-549
Method in brief: as §1

SKOV-3 = assay: SRB colorimetric cell growth inhibition assay, SKOV-3; conditions: Homo sapiens; for GI50: SK-OV-3, SKOV-3, GI=growth inhibition, read-out: GI50 SKOV-3; for LC50 (concentration causing 50% net cell killing) / IC (TGI): SK-OV-3, SKOV-3; for LC50 (concentration causing 50% net cell killing): cell killing (cytotoxic effect), read-out: LC50 SKOV-3; for IC (TGI): total growth inhibition (cytostatic effect), read-out: TGI SKOV-3
From the text: (§2) A colorimetric type of assay, using sulforhodamine B (SRB) reaction has been adapted for a quantitative measurement of cell growth and viability (following the technique described by P. A. Skehan, et al., J. Natl. Cancer Inst. 1990, 82, 1107-1112).
(§3) This form of assay employs 96 well cell culture microplates of 9 mm diameter (T. Mosmann et al., J. of Immunological Methods 1983, 65, 55-63; G. T. Faircloth et al., J. of Tissue and Culture Methods 1988, 11, 201-205).
(§4) Most of the cell lines are obtained from American Type Culture Collection (ATCC) derived from different human cancer types.
(§5) The values for mean +/− SD of data from triplicate wells are calculated. Some parameters for cellular responses can be calculated: GI=growth inhibition, TGI=total growth inhibition (cytostatic effect) and LC=cell killing (cytotoxic effect).

SK-BR-3 = assay: SRB colorimetric cell growth inhibition assay, SK-BR-3; conditions: for CC50: cell killing (cytotoxic effect), read-out: LC50 SK-BR-3; for GI50: GI=growth inhibition, read-out: GI50 SK-BR-3
Method in brief: as §1

HT-29 = assay: SRB colorimetric cell growth inhibition assay, HT-29; conditions: for GI50: GI=growth inhibition, read-out: GI50 HT-29; for CC50: cell killing (cytotoxic effect), read-out: LC50 HT-29
Method in brief: as §1

SK-MEL-28 = assay: SRB colorimetric cell growth inhibition assay, SK-MEL-28; conditions: for GI50: GI=growth inhibition, read-out: GI50 MEL-28; for CC50: cell killing (cytotoxic effect), read-out: LC50 MEL-28
Method in brief: as §1

LNCaP = assay: SRB colorimetric cell growth inhibition assay, LNCaP; conditions: Homo sapiens, LNCaP, LN-caP; for GI50: GI=growth inhibition, read-out: GI50 LN-caP; for CC50: cell killing (cytotoxic effect), read-out: LC50 LN-caP; for IC (TGI): total growth inhibition (cytostatic effect), read-out: TGI LN-caP
Method in brief: as §1

K-562 = assay: SRB colorimetric cell growth inhibition assay, K-562; conditions: Homo sapiens, K562, K-562; for GI50: GI=growth inhibition, read-out: GI50 K-562; for CC50: cell killing (cytotoxic effect), read-out: LC50 K-562; for IC (TGI): total growth inhibition (cytostatic effect), read-out: TGI K-562
Method in brief: as §1

LoVo = assay: SRB colorimetric cell growth inhibition assay, LoVo; conditions: for GI50: GI=growth inhibition, read-out: GI50 LOVO; for IC (TGI): total growth inhibition (cytostatic effect), read-out: TGI LOVO; for CC50: cell killing (cytotoxic effect), read-out: LC50 LOVO
Method in brief: as §1

IGROV = assay: SRB colorimetric cell growth inhibition assay, IGROV; conditions: Homo sapiens, IGROV; for GI50: GI=growth inhibition, read-out: GI50 IGROV; for CC50: cell killing (cytotoxic effect), read-out: LC50 IGROV; for IC (TGI): total growth inhibition (cytostatic effect), read-out: TGI IGROV
Method in brief: as §1

H-MEC-1 = assay: SRB colorimetric cell growth inhibition assay, H-MEC-1; conditions: Homo sapiens, HMEC-1, H-MEC-1; for GI50: GI=growth inhibition, read-out: GI50 H-MEC-1; for IC (TGI): total growth inhibition (cytostatic effect), read-out: TGI H-MEC-1
From the text: as §2, §3, §4, §5

[1] = as above; conditions: human, H-MEC-1 cells; H-MEC-1; cell killing (cytotoxic effect); read-out: LC50 H-MEC-1
From the text: as §2, §3, §4, §5

IGROV-ET = assay: SRB colorimetric cell growth inhibition assay, IGROV-ET (ET-743 resistant); conditions: Homo sapiens, IGROV-ET; for GI50: GI=growth inhibition, read-out: GI50 IGROV-ET; for CC50: cell killing (cytotoxic effect), read-out: LC50 IGROV-ET; for IC (TGI): total growth inhibition (cytostatic effect), read-out: TGI IGROV-ET
Method in brief: as §1

DU-145 = assay: SRB colorimetric cell growth inhibition assay, DU-145; conditions: for CC50: cell killing (cytotoxic effect), read-out: LC50 DU-145; for GI50: GI=growth inhibition, read-out: GI50 DU-145; for IC (TGI): total growth inhibition (cytostatic effect), read-out: TGI DU-145
Method in brief: as §1

[2] = Homo sapiens, SK-MEL-28, MEL-28

In the case of `COc1cc2ccn3c(c(-c4ccc(OC(=O)[C@@H](N)C(C)C)c(OC)c4)c4c5cc(OC)c(OC(=O)[C@@H](N)C(C)C)cc5oc(=O)c43)c2cc1OC` [Compound 19], the CC50 (PANC-1; Homo sapiens, PANC-1, PANC-1) is reported as 9500 nM, the GI50 (PANC-1; PANC-1) is reported as 245 nM and the “TGI PANC-1” value (PANC-1; PANC-1, total growth inhibition (cytostatic effect)) is reported as 2.42E−06 Molar. It also gave a GI50 (LoVo-Dox) of 874 nM, a CC50 (LoVo-Dox) of 8030 nM and an IC (TGI) (LoVo-Dox) of 2720 nM. The CC50 (A-549; A-549) was 6320 nM, the “TGI A-549” value (A-549; A-549, total growth inhibition (cytostatic effect)) was 2.13E−06 Molar and the GI50 (A-549; Homo sapiens, A549, A-549) was 605 nM. The GI50 (SKOV-3) was 758 nM, the LC50 (concentration causing 50% net cell killing) (SKOV-3) was 6570 nM and the IC (TGI) (SKOV-3) was 2310 nM. The CC50 (SK-BR-3; Homo sapiens, SK-BR-3, SK-BR-3) was 14000 nM, the GI50 (SK-BR-3; SK-BR-3) was 165 nM and the “TGI SK-BR-3” value (SK-BR-3; SK-BR-3, total growth inhibition (cytostatic effect)) was 2.28E−06 Molar. For the same compound, the GI50 (HT-29; HT-29) was 109 nM, the “TGI HT-29” value (HT-29; HT-29, total growth inhibition (cytostatic effect)) was 2.10E−06 Molar and the CC50 (HT-29; Homo sapiens, HT-29, HT-29) was 7290 nM. The GI50 (SK-MEL-28; MEL-28) was 273 nM, the CC50 (SK-MEL-28; MEL-28) was 4990 nM and the “TGI MEL-28” value (SK-MEL-28; MEL-28, total growth inhibition (cytostatic effect)) was 1.53E−06 Molar. It also gave a GI50 (LNCaP) of 94.1 nM, a CC50 (LNCaP) of 5370 nM and an IC (TGI) (LNCaP) of 1410 nM. It also gave a GI50 (K-562) of 1840 nM, a CC50 (K-562) of 11600 nM and an IC (TGI) (K-562) of 4620 nM. For the same compound, the GI50 (LoVo; Homo sapiens, LoVo) was 722 nM, the IC (TGI) (LoVo; Homo sapiens, LoVo) was 2330 nM and the CC50 (LoVo; LOVO) was 6600 nM. The GI50 (IGROV) was 406 nM, the CC50 (IGROV) was 9340 nM and the IC (TGI) (IGROV) was 2510 nM. The GI50 (H-MEC-1) was 807 nM, the IC (TGI) (H-MEC-1) was 2420 nM and the LC50 (concentration giving 50% net cell killing) [1] was 7160 nM. The GI50 (IGROV-ET) was 761 nM, the CC50 (IGROV-ET) was 11300 nM and the IC (TGI) (IGROV-ET) was 2540 nM. It also gave a CC50 (DU-145; DU-145) of 6850 nM, a GI50 (DU-145; Homo sapiens, DU-145, DU-145) of 532 nM and an IC (TGI) (DU-145; Homo sapiens, DU-145, DU-145) of 2160 nM.

For `COc1cc2c(cc1OC)-c1c(-c3ccc(OC(=O)[C@H](C)NC(=O)OC(C)(C)C)c(OC)c3)c3c4cc(OC)c(OC(=O)[C@H](C)NC(=O)OC(C)(C)C)cc4oc(=O)c3n1CC2` [Compound 21], the GI50 (PANC-1; Homo sapiens, PANC-1, PANC-1) was 514 nM, the CC50 (PANC-1; Homo sapiens, PANC-1, PANC-1) was 11700 nM and the IC (TGI) (PANC-1; Homo sapiens, PANC-1, PANC-1, total growth inhibition (cytostatic effect), read-out: TGI PANC-1) was 1810 nM. It also gave a GI50 (LoVo-Dox) of 4970 nM, a CC50 (LoVo-Dox) of 11700 nM and an IC (TGI) (LoVo-Dox) of 11700 nM. The GI50 (A-549; Homo sapiens, A549, A-549) was 1390 nM, the CC50 (A-549; Homo sapiens, A549, A-549) was 11700 nM and the IC (TGI) (A-549; Homo sapiens, A549, A-549, total growth inhibition (cytostatic effect), read-out: TGI A-549) was 4620 nM. For the same compound, the GI50 (SKOV-3) was 849 nM, the LC50 (concentration causing 50% net cell killing) (SKOV-3) was 11700 nM and the IC (TGI) (SKOV-3) was 11700 nM. For the same compound, the GI50 (SK-BR-3; Homo sapiens, SK-BR-3, SK-BR-3) was 342 nM, the CC50 (SK-BR-3; Homo sapiens, SK-BR-3, SK-BR-3) was 11700 nM and the IC (TGI) (SK-BR-3; Homo sapiens, SK-BR-3, SK-BR-3, total growth inhibition (cytostatic effect), read-out: TGI SK-BR-3) was 599 nM. For the same compound, the GI50 (HT-29; Homo sapiens, HT-29, HT-29) was 512 nM, the CC50 (HT-29; Homo sapiens, HT-29, HT-29) was 11700 nM and the IC (TGI) (HT-29; Homo sapiens, HT-29, HT-29, total growth inhibition (cytostatic effect), read-out: TGI HT-29) was 11700 nM. For the same compound, the GI50 (SK-MEL-28; [2]) was 287 nM, the CC50 (SK-MEL-28; [2]) was 860 nM and the IC (TGI) (SK-MEL-28; Homo sapiens, SK-MEL-28, MEL-28, total growth inhibition (cytostatic effect), read-out: TGI MEL-28) was 497 nM. It also gave a GI50 (LNCaP) of 190 nM, a CC50 (LNCaP) of 775 nM and an IC (TGI) (LNCaP) of 383 nM. It also gave a GI50 (K-562) of 286 nM, a CC50 (K-562) of 2390 nM and an IC (TGI) (K-562) of 582 nM. For the same compound, the GI50 (LoVo; Homo sapiens, LoVo) was 1950 nM, the CC50 (LoVo; Homo sapiens, LoVo) was 11700 nM and the IC (TGI) (LoVo; Homo sapiens, LoVo) was 4970 nM. The GI50 (IGROV) was 315 nM, the CC50 (IGROV) was 9020 nM and the IC (TGI) (IGROV) was 664 nM. It also gave a GI50 (H-MEC-1) of 281 nM, an IC (TGI) (H-MEC-1) of 509 nM and an LC50 (concentration giving 50% net cell killing) [1] of 922 nM. The GI50 (IGROV-ET) was 901 nM, the CC50 (IGROV-ET) was 11700 nM and the IC (TGI) (IGROV-ET) was 5180 nM. The GI50 (DU-145; Homo sapiens, DU-145, DU-145) was 353 nM, the CC50 (DU-145; Homo sapiens, DU-145, DU-145) was 11700 nM and the IC (TGI) (DU-145; Homo sapiens, DU-145, DU-145) was 703 nM.
